Measurements as given in patent publication US20240208915A1, “A SOLID STATE FORM OF TAFAMIDIS AND A PROCESS FOR ITS PREPARATION” (Quimica Sintetica, S.A., priority 2021, published 2024).
Like-named read-outs stand apart in the source and are kept apart here.

Tests used:
[1] = cited from earlier work
[2] = XRPD pattern after keeping at storage condition in a close vial; assay type: physicochemical; details: storage condition (room temperature, RH not more than 80%)
Procedure: (§1) The instruments and methods used to characterize the crystals obtained in the examples are as follows: • X-ray powder diffraction analyses (XRPD) were performed on a Bruker D8 Advance X-ray powder diffractometer at about 25° C. and ambient humidity (e.g. 25-35%), using a Cu Kα tube (40 kV, 40 mA, λ=1.5418 Å) as the X-ray source, equipped with a linear Lynxeye XE-T position sensitive detector set at 250 mm from the sample. A Nickel filter (0.0125 mm thickness) was mounted on the primary beam. Data collection was made in coupled mode, theta-theta configuration over an angular range between at least 3° 2 theta and 40° 2theta and a scan step of 0.02°. Fine powder samples were placed in a flat, thin layer in the 12 mm×0.2 mm cavity of a silicon low background plate fixed on a sample holder fitting an autosampler position. The instrument was previously calibrated by means of NIST SRM 1976b. Data acquisition was performed by means of Bruker Diffraction Measurement Center software; data elaboration was performed by means of Crystal Impact Match! or Bruker Diffrac. EVA software.

[3] = Stability studies: XRPD to evaluate any change in crystalline form; assay type: physicochemical
Procedure: as §1
(§2) Vials containing 100 mg each of alpha form of present invention are stored at the following conditions, wherein RH is referred to relative humidity: • room Temperature (RT) and 80% RH, open vial • 40° C. and 75% RH, open vial
(§3) The sample were analysed before the storage (initial data), 8 days, 15 days and 4 weeks using X-ray powder diffractogram (XRPD) to evaluate any change in crystalline form and using HPLC to measure the chemical purity.
(§4) 700 mg of tafamidis form 4 of obtained according to present invention are stored at the following conditions, wherein RH is referred to relative humidity: • 40° C. and 75% RH, type A container.
(§5) The samples were analysed before the storage (initial data), after 1 month, 3 months, 6 months using X-ray powder diffractogram (XRPD) to evaluate any change in crystalline form and using HPLC to measure the chemical purity.

[4] = Chemical and physical stability over storage (summary statements)
Excerpt: “Storage condition” referred to 2-(3,5-dichlorophenyl)-1,3-benzoxazole-6-carboxylic acid and its salt means that all the forms are stored in a close vessel at room temperature, ambient pressure and at relative humidity (RH) degree not more than 80%.

[5] = Stability studies: HPLC to measure the chemical purity; assay type: physicochemical
Procedure: as §2, §3, §4, §5

SMILES: O=C(O)c1ccc2nc(-c3cc(Cl)cc(Cl)c3)oc2c1 [form I, 2-(3,5-dichlorophenyl)-1,3-benzoxazole-6-carboxylic acid]
- solid form conversion upon drying ([1]; vacuum dryer at 100-160° C. (WO 2020/232325, examples 16 to 20)): convert into form 4

SMILES: O=C(O)c1ccc2nc(-c3cc(Cl)cc(Cl)c3)oc2c1 [form 4, 2-(3,5-dichlorophenyl)-1,3-benzoxazole-6-carboxylic acid]
- change of XRPD pattern ([2]; 10 months): does not change its XRPD pattern
- transformation into a different crystalline form (XRPD) ([3]; 40° C., 75% RH, type A container, after 6 months): no signs of transformation into a different crystalline form
- thermodynamic stability of the form ([1]; high temperature): more stable
- chemical and physical stability ([4]; stored for several months at 40° C. and 75% RH): chemically and physically stable

SMILES: O=C(O)c1ccc2nc(-c3cc(Cl)cc(Cl)c3)oc2c1 [amorphous, 2-(3,5-dichlorophenyl)-1,3-benzoxazole-6-carboxylic acid]
- solid form conversion upon storage ([1]; 1 week at 70° C. and 75% relative humidity): converts into crystalline form 4

SMILES: O=C(O)c1ccc2nc(-c3cc(Cl)cc(Cl)c3)oc2c1 [form alpha, 2-(3,5-dichlorophenyl)-1,3-benzoxazole-6-carboxylic acid]
- transformation into a different crystalline form (XRPD) ([3]; 40° C., 75% RH, open vial, after 4 weeks): no signs of transformation
- transformation into a different crystalline form (XRPD) ([3]; room temperature, 80% RH, open vial, after 4 weeks): no signs of transformation
- chemical and physical stability (polymorphic form, chemical purity) ([4]; storage between 15 to 60° C. for several weeks at different degree of humidity): chemically and physically stable
- chemical purity by HPLC versus initial profile ([5]; 40° C., 75% RH, open vial, up to 4 weeks): does not present a significant worsening of the purity
- chemical purity by HPLC versus initial profile ([5]; 40° C., 75% RH, type A container, up to 6 months): does not present a significant worsening of the purity
- chemical purity by HPLC versus initial profile ([5]; room temperature, 80% RH, open vial, up to 4 weeks): does not present a significant worsening of the purity

SMILES: O=C(O)c1ccc2nc(-c3cc(Cl)cc(Cl)c3)oc2c1 [form 1, 2-(3,5-dichlorophenyl)-1,3-benzoxazole-6-carboxylic acid]
- change of XRPD pattern ([2]; 8 months): does not change its XRPD pattern
- thermodynamic stability of the form ([1]; room temperature): thermodynamically stable form
- chemical and physical stability (XRPD pattern, degradation) ([4]; kept at storage condition): chemically and physically stable
